The text below walks through data of paper PMC3025356, “Mechanism of the Ca^2+-Dependent Interaction between S100A4 and Tail Fragments of Nonmuscle Myosin Heavy Chain IIA” (Journal of Molecular Biology, 2011).

A short description of assay [1]: Stopped-flow tyrosine fluorescence, Ca^2+ dissociation from S100A4 constructs. The class given is binding. How it is done:
(§1) Stopped-flow measurements were carried out using an SX18-MV apparatus (Applied Photophysics Ltd., Leatherhead, UK) with a dead time of 1.5 ms.[40] Records were generally captured on a logarithmic time base. Absorption (turbidity) measurements were usually recorded using a 10-mm pathlength, while fluorescence was recorded with a 2-mm pathlength for excitation and emission. The stated concentrations of components refer to the reaction chamber after mixing, unless otherwise indicated. Tyrosine fluorescence was excited at 280 nm, and the emission was collected through a UG11 bandpass filter plus a 305-nm longpass filter.[18] Fluorescein fluorescence was excited at 480 nm, and the emission was detected through a 515-nm longpass filter. Quin-2 fluorescence was measured by excitation at 336 nm, and emission was collected with a 455-nm longpass filter. For simultaneous recording of light scatter, a second channel was monitored through a UG11 filter. Rate constants were obtained by fitting to single-exponential or double-exponential functions using Kaleidagraph (Synergy Software) or Applied Photophysics Pro-Data software. Modeling of kinetic schemes was performed using Berkeley Madonna software.
Dissociation of Ca2+ from wild type S100A4 (black), Y19F mutant (blue) and Y75F mutant (red) monitored by tyrosine fluorescence. 13 M of each S100A4 construct plus 100 µM Ca2+ was mixed with 200 µM EGTA (reaction chamber concentrations) and the tyrosine fluorescence monitored. The buffer was 20 mM NaCl, 10 mM HEPES, 2 mM DTT at pH 7.5 and 20 °C. Fits to a single exponential function yielded rate constants of 20 s-1, 113 s-1 and 45 s-1 for wild-type, Y19F mutant and Y75F mutant respectively. (d) Dissociation of Ca2+ from wild type S100A4 (black), E33Q mutant (blue) and D63N mutant (red) monitored by tyrosine fluorescence. 13 M of each S100A4 construct plus 15 M Ca2+ was mixed with 200 M EGTA (reaction chamber concentrations) and the tyrosine fluorescence monitored. Fits to a single exponential function yielded rate constants of 22 s-1 and 49 s-1 for wild-type and E33Q construct respectively, while that […]
The records for the mutants were vertically offset for clarity in both […]

In assay [2] the target is T1, Δ10-S100A4 (Homo sapiens, UniProt P26447).
T1 construct: truncated Δ10-S100A4, which lacks 10 C-terminal residues; made in house; host or cells: Escherichia coli (M9 minimal medium, 15N labelling)
T1 sequence (P26447 1-91 limits assumed, stated change not applied): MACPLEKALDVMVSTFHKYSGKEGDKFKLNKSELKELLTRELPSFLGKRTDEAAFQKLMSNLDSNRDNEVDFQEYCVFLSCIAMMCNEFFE
The experiment in a line: NMR ^1H,^15N HSQC titration of Δ10-S100A4 with myosin peptides. The class given is binding.

Assay [3] is described as follows: Isothermal titration calorimetry of Ca^2+ binding to S100A4 constructs. Here is the method: Fig. 2 ITC records for Ca^2+ binding to S100A4 constructs: (a) 75 μM wild type at 30 °C; (b) 75 μM wild type at 10 °C; (c) 75 μM E33Q construct at 30 °C; (d) 300 μM D63N construct at 30 °C. For mutant constructs data at 10 °C, see Fig. S1. All preparations were dialysed against the same buffer of 20 mM NaCl, 10 mM Hepes, and 2 mM DTT (pH 7.5).
ITC data were collected using a VP-ITC microcalorimeter (MicroCal Ltd., Northampton, MA) and analysed by fitting to a single-site binding equation or a two-site binding equation using MicroCal Origin software.
A general note: In ITC the heat of successive injections is recorded.

A short description of assay [4]: Stopped-flow Quin-2 fluorescence, Ca^2+ dissociation from / binding to S100A4 constructs (no target). The note with it: single exponential fit, no target.
Excerpt: In order to increase the signal-to-noise ratio of the Ca^2+ dissociation transients, we used Quin-2 as combined fluorescent indicator and high-affinity chelator.[19,20] These measurements confirmed that Ca^2+ dissociated from wild-type protein with a rate constant of 16 s^− 1 (Fig. 3a; cf. 20 s^− 1 for the tyrosine signal). Given the poor signal-to-noise ratio of the tyrosine signal, the difference is barely significant but may reflect the fact that the Quin-2 signal represents at least a two-step sequential reaction (Ca^2+ dissociation from S100AS4, followed by rapid binding to Quin-2).
Fig. 3 (a) Dissociation of Ca^2+ from wild-type S100A4 (black), E33Q mutant (blue), and D63N mutant (red), as monitored by Quin-2 fluorescence. […] The records for the mutants were vertically offset for clarity. (b) Ca^2+ binding to S100A4 as determined from the amplitude of the resolved transient (k ≈ 20 s^− 1) when 6.5 μM S100A4 was preincubated with various added [Ca^2+] and then mixed with 100 μM Quin-2. The amplitude was converted into a bound concentration from an independent calibration using the same Quin-2 solution and known free [Ca^2+]. […] While either model could account for the data, the measured stoichiometry from ITC (Table 1) favors the cooperative model.
as §1

Where [5] appears, read: 13 μM S100A4 + 100 μM Ca^2+ mixed with 200 μM EGTA, 20 mM NaCl, 10 mM Hepes, 2 mM DTT, pH 7.5, 20 °C.
Where [6] appears, read: 10 °C and 30 °C, read-out: Kd for Ca^2+.
The mark [7] stands for this setting: 10 °C, 75 μM protein (D63N 300 μM), 20 mM NaCl, 10 mM Hepes, 2 mM DTT, pH 7.5.
The mark [8] stands for this setting: 30 °C, 75 μM protein (D63N 300 μM), 20 mM NaCl, 10 mM Hepes, 2 mM DTT, pH 7.5.
Setting [9] is: first site, Ca^2+ binding, 30 °C, 75 μM protein (D63N 300 μM), 20 mM NaCl, 10 mM Hepes, 2 mM DTT, pH 7.5, read-out: K1d.
Setting [10] is: first site, 10 °C, wild type and E33Q cooperative, read-out: K1d.

Where two headings read alike, the source gives them in different places.

Regarding “Y19F: S100A4 mutant, tyrosine 19 to phenylalanine”, in assay [1] (setting [5]), the “Ca^2+ dissociation rate constant (tyrosine)” value turned out to be 113 s^− 1.

Regarding “Δ10-S100A4: truncated S100A4, lacks 10 C-terminal residues”, the “interaction in the absence of Ca^2+” value in assay [2] (absence of Ca^2+) is listed as “No interaction was observed”.

In the case of “E33Q: S100A4 mutant compromised in the EF1 Ca^2+ binding loop”, the Kd was 1 to 10 µM in assay [3] (setting [6]), 10.9 ± 1.9 µM in assay [3] (setting [9]) and about 1 µM in assay [3] (setting [10]). The figures for the “n1 (Ca^2+ per monomer)” value in assay [3] (setting [7]) and in assay [3] (setting [8]) were 0.96 ± 0.09 Ca^2+ per monomer and 0.33 ± 0.03 Ca^2+ per monomer, respectively. Moreover, in assay [1] (13 μM S100A4 + 15 μM Ca^2+ mixed with 200 μM EGTA), the “Ca^2+ dissociation rate constant (tyrosine)” value was found to be 49 s^− 1. In assay [4], the “Ca^2+ dissociation rate constant (Quin-2)” value came out at 35 s^− 1.

For the substance “D63N: S100A4 mutant compromised in the EF2 Ca^2+ binding loop”, the results for the Kd in assay [3] (setting [6]), in assay [3] (setting [9]) and in assay [3] (setting [10]) were 65 to 70 µM, 68 ± 1 µM and 65 ± 3 µM, respectively. Moreover, the “n1 (Ca^2+ per monomer)” value came out at 0.44 ± 0.01 Ca^2+ per monomer in assay [3] (setting [7]) and 0.54 ± 0.01 Ca^2+ per monomer in assay [3] (setting [8]). Also, in assay [3] (compromised EF2 site, as suggested by ITC), the “reduction in Ca^2+ affinity” value is recorded as 30 -fold. Moreover, the “Ca^2+ dissociation rate constant (Quin-2)” value in assay [4] stood at 500 s^− 1.

Turning to “Y75F: S100A4 mutant, tyrosine 75 to phenylalanine”, the “Ca^2+ dissociation rate constant (tyrosine)” value in assay [1] (setting [5]) is on record as 45 s^− 1.

Regarding “M15^C: myosin peptide G1924-G1938, acetylated N-terminus, amidated C-terminus (Ac-GDLPFVVPRRMARKG-NH2)”, in assay [2] (0.2 mM Δ10-S100A4, Ca^2+, 35 °C), the NMR exchange regime result was “fast exchange”. For the same substance, the “affinity by NMR” value in assay [2] (0.2 mM Δ10-S100A4, up to 9-fold molar excess of peptide) is “too low to be measured by NMR”.
